The results in this text go back to patent US6844435B2, “Heterocyclic compounds useful as inhibitors of tyrosine kinases” (Boehringer Ingelheim Pharmaceuticals, Inc., priority 2000, dated 2005).

Molecules are shown by their SMILES.

In turn, `Cn1c(Nc2c(Cl)cccc2Cl)nc2ccc3nc(C4CC4)[nH]c(=O)c3c21` [Example 59] displayed a melting point of more than 300 °C. The figure for `Cn1c(Nc2c(Cl)cccc2Cl)nc2ccc3nc(C(=O)c4ccccc4)[nH]c(=O)c3c21` [Example 60] is 280 °C (dec.); for `CN1CCN(S(=O)(=O)c2cccc(-c3nc4ccc5nc(Nc6c(Cl)cccc6Cl)n(C)c5c4c(=O)[nH]3)c2)CC1` [Example 61] it is 215 °C (dec.); for `CNc1nc2ccc3nc(Nc4c(Cl)cccc4Cl)n(C)c3c2c(=O)[nH]1` [Example 62] it is 198 to 204 °C. The figure for `CC(C)=C(C)c1nc2ccc3nc(Nc4c(Cl)cccc4Cl)n(C)c3c2c(=O)[nH]1` [Example 63] is more than 300 °C; for `CCCCCc1nc2ccc3nc(Nc4c(Cl)cccc4Cl)n(C)c3c2c(=O)[nH]1` [Example 64] it is 257 to 260 °C. The figure for `Cn1c(Nc2c(Cl)cccc2Cl)nc2ccc3nc(C4=CC(N5CCN(C(=O)OC(C)(C)C)CC5)CC4)[nH]c(=O)c3c21` (centres unmarked) [Example 65] is 168 to 170 °C; for `Cn1c(Nc2c(Cl)cccc2Cl)nc2ccc3nc(C4=CC(O)CC4)[nH]c(=O)c3c21` (centres unmarked) [Example 66] it is 285 °C.

In turn, `Cn1c(Nc2c(Cl)cccc2Cl)nc2ccc3nc(-c4cccc(S(=O)(=O)N5CCN(C(=O)OC(C)(C)C)CC5)c4)[nH]c(=O)c3c21` [Example 67] registered a melting point of 189 °C. In the case of `Cn1c(Nc2c(Cl)cccc2Cl)nc2ccc3nc(-c4cccc(S(=O)(=O)N5CCNCC5)c4)[nH]c(=O)c3c21` [Example 68], the melting point was determined as 210 °C. The figure for `Cn1c(Nc2c(Cl)cccc2Cl)nc2ccc3nc(C4=CCC(C#N)C4)[nH]c(=O)c3c21` (centres unmarked) [Example 69] is > 295 °C (dec.); for `C/C(=C\c1cccc(C#N)c1)c1nc2ccc3nc(Nc4c(Cl)cccc4Cl)n(C)c3c2c(=O)[nH]1` [Example 70] it is 288 to 290 °C; for `C/C(=C\c1ccccc1[N+](=O)[O-])c1nc2ccc3nc(Nc4c(Cl)cccc4Cl)n(C)c3c2c(=O)[nH]1` [Example 71] it is 290 to 292 °C. `CC(=O)C1CC=C(c2nc3ccc4nc(Nc5c(Cl)cccc5Cl)n(C)c4c3c(=O)[nH]2)C1` (centres unmarked) [Example 72]: the melting point was > 215 °C (dec.). The figure for `Cn1c(Nc2c(Cl)cccc2Cl)nc2ccc3nc(-c4csc([C@H]5CCCN5C(=O)OCc5ccccc5)n4)[nH]c(=O)c3c21` [Example 73] is 209 °C; for `Cn1c(Nc2c(Cl)cccc2Cl)nc2ccc3nc(-c4csc([C@@H]5CCCC[C@H]5NC(=O)OCc5ccccc5)n4)[nH]c(=O)c3c21` [Example 75] it is 163 to 169 °C; for `Cn1c(Nc2c(Cl)cccc2Cl)nc2ccc3nc(-c4csc(CC5CCCN(C(=O)OCc6ccccc6)C5)n4)[nH]c(=O)c3c21` (centres unmarked) [Example 76] it is 155 to 160 °C. The figure for `Cn1c(Nc2c(Cl)cccc2Cl)nc2ccc3nc(-c4csc([C@@H]5CCCC[C@H]5N)n4)[nH]c(=O)c3c21` [Example 77] is 295 to 300 °C (dec.); for `Cn1c(Nc2c(Cl)cccc2Cl)nc2ccc3nc(-c4csc(CC5CCCNC5)n4)[nH]c(=O)c3c21` (centres unmarked) [Example 78] it is 161 to 166 °C; for `Cc1nc(-c2nc3ccc4nc(Nc5c(Cl)cccc5Cl)n(C)c4c3c(=O)[nH]2)cs1` [Example 79] it is 295 °C (dec.).

With `C/C(=C\c1ccccc1N)c1nc2ccc3nc(Nc4c(Cl)cccc4Cl)n(C)c3c2c(=O)[nH]1` [Example 80], the melting point lay in the range of 310 to 313 °C. For the molecule `Cn1c(Nc2c(Cl)cccc2Cl)nc2ccc3nc(C4=CC(=O)CC4)[nH]c(=O)c3c21` [Example 81], the melting point is more than 300 °C. The figure for `Cn1c(Nc2c(Cl)cccc2Cl)nc2ccc3nc(C4=CCN(C(=O)OC(C)(C)C)C4)[nH]c(=O)c3c21` [Example 83] is 206 to 208 °C; for `C/C(=C\c1cccc(N)c1)c1nc2ccc3nc(Nc4c(Cl)cccc4Cl)n(C)c3c2c(=O)[nH]1` [Example 84] it is > 300 °C (dec.). `CC(=O)OCC(=O)N1CCN(S(=O)(=O)c2cccc(-c3nc4ccc5nc(Nc6c(Cl)cccc6Cl)n(C)c5c4c(=O)[nH]3)c2)CC1` [Example 85]: the melting point was 246 °C (dec.). Regarding `Cn1c(Nc2c(Cl)cccc2Cl)nc2ccc3nc(C4=CCNC4)[nH]c(=O)c3c21` [Example 86], the melting point is 240 to 241 °C (dec.). The figure for `CCCCCC1NC(=O)c2c(ccc3nc(Nc4c(Cl)cccc4Cl)n(C)c23)N1C` (centres unmarked) [Example 87] is 126 to 128 °C; for `CN1c2ccc3nc(Nc4c(Cl)cccc4Cl)n(C)c3c2C(=O)NC1c1ccccc1` (centres unmarked) [Example 88] it is 228 to 230 °C. Turning to `C/C(=C\c1cccc(CN)c1)c1nc2ccc3nc(Nc4c(Cl)cccc4Cl)n(C)c3c2c(=O)[nH]1` [Example 89], the melting point lay within 197 to 205 °C.

`Cn1c(Nc2c(Cl)cccc2Cl)nc2ccc3nc(-c4cccc(S(=O)(=O)N5CCN(C(=N)N)CC5)c4)[nH]c(=O)c3c21` [Example 90]: the melting point was found to be 215 °C.

With `Cn1c(Nc2c(Cl)cccc2Cl)nc2ccc3nc(-c4cccc(S(=O)(=O)N5CCN(C(=O)CO)CC5)c4)[nH]c(=O)c3c21` [Example 91], the melting point is more than 300 °C. The molecule `[H]/N=C(/N)c1cccc(/C=C(\C)c2nc3ccc4nc(Nc5c(Cl)cccc5Cl)n(C)c4c3c(=O)[nH]2)c1` [Example 92] came in with a melting point of more than 300 °C. In the case of `Cn1c(Nc2c(Cl)cccc2Cl)nc2ccc3nc(C4=CC5CN(C(=O)OC(C)(C)C)CC5C4)[nH]c(=O)c3c21` (centres unmarked) [Example 94], the melting point lay within 210 to 215 °C. With `Cn1c(Nc2c(Cl)cccc2Cl)nc2ccc3nc(C4=CC5CNCC5C4)[nH]c(=O)c3c21` (centres unmarked) [Example 95], the melting point was 265 °C (dec.). As to `Cn1c(Nc2c(Cl)cccc2Cl)nc2ccc3nc(-c4ccc(S(=O)(=O)N5CCN(C(=O)OC(C)(C)C)CC5)cc4)[nH]c(=O)c3c21` [Example 96], the melting point is 190 °C. For the molecule `Cn1c(Nc2c(Cl)cccc2Cl)nc2ccc3nc(-c4csc([C@H]5CCCN5)n4)[nH]c(=O)c3c21` [Example 98], the melting point was 290 °C (dec.). The figure for `C/C(=C\c1cc(N)cc(N)c1)c1nc2ccc3nc(Nc4c(Cl)cccc4Cl)n(C)c3c2c(=O)[nH]1` [Example 99] is 195 to 200 °C (dec.); for `Cn1c(Nc2c(Cl)cccc2Cl)nc2ccc3nc(-c4ccc(S(=O)(=O)N5CCNCC5)cc4)[nH]c(=O)c3c21` [Example 100] it is 246 °C. Turning to `C/C(=C\c1cccc(NC(=N)N)c1)c1nc2ccc3nc(Nc4c(Cl)cccc4Cl)n(C)c3c2c(=O)[nH]1` [Example 101], the melting point is 170 °C (dec.). Take `C/C(=C\c1ccccc1C#N)c1nc2ccc3nc(Nc4c(Cl)cccc4Cl)n(C)c3c2c(=O)[nH]1` [Example 102]: the melting point was in the range of 284 to 288 °C. The figure for `C/C(=C\c1cc(N/C(=N\C(=O)OC(C)(C)C)NC(=O)OC(C)(C)C)cc(N/C(=N\C(=O)OC(C)(C)C)NC(=O)OC(C)(C)C)c1)c1nc2ccc3nc(Nc4c(Cl)cccc4Cl)[nH]c3c2c(=O)[nH]1` [Example 103] is more than 300 °C.
